Assay results from ChEMBL document CHEMBL1155826, “Refinement of histamine H3 ligands pharmacophore model leads to a new class of potent and selective naphthalene inverse agonists” (Bioorg Med Chem Lett, 2008).

How the values were obtained:
[1] = target: T1, Histamine H3 receptor (Homo sapiens, UniProt Q9Y5N1); assay: Displacement of [3H]RAMH from human histamine H3 receptor expressed in CHO cells at 3 uM; format: cell-based
[2] = target: T1, Histamine H3 receptor; assay: Displacement of [3H]RAMH from human histamine H3 receptor expressed in CHO cells; format: cell-based
[3] = target: T1, Histamine H3 receptor; assay: Inverse agonist activity at human histamine H3 receptor expressed in CHO cells by GTPgammaS assay; format: functional, cell-based
[4] = target: Histamine H1 receptor (Homo sapiens) (UniProt P35367); assay: Inhibition of histamine H1 receptor at 3 uM
[5] = target: Histamine H2 receptor (Homo sapiens) (UniProt P25021); assay: Inhibition of histamine H2 receptor at 3 uM
[6] = target: Histamine H4 receptor (Homo sapiens) (UniProt Q9H3N8); assay: Inhibition of histamine H4 receptor at 3 uM

T1 sequence (Q9Y5N1 whole entry): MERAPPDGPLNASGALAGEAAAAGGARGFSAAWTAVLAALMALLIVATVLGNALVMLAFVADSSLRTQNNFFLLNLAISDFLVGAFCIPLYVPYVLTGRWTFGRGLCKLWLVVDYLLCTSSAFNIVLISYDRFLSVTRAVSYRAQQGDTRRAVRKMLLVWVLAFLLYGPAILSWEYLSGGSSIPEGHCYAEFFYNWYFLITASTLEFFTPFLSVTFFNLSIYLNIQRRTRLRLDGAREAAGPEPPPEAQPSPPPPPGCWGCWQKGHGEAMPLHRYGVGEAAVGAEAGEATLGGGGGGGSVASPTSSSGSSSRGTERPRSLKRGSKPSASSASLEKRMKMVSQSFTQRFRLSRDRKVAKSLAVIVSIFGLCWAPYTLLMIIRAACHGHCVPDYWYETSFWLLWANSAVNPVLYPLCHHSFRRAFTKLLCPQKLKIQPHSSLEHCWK
Sequence of Histamine H2 receptor (Homo sapiens) (P25021 whole entry): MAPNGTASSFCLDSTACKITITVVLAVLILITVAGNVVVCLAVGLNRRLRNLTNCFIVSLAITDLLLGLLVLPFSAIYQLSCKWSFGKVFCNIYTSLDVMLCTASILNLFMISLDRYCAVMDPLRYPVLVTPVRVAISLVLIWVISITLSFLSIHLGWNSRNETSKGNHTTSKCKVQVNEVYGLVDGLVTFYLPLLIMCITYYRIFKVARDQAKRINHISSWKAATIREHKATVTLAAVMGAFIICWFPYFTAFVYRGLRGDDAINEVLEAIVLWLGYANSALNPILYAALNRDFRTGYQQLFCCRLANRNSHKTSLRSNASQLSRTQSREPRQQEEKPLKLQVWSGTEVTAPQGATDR
Sequence of Histamine H1 receptor (Homo sapiens) (P35367 whole entry): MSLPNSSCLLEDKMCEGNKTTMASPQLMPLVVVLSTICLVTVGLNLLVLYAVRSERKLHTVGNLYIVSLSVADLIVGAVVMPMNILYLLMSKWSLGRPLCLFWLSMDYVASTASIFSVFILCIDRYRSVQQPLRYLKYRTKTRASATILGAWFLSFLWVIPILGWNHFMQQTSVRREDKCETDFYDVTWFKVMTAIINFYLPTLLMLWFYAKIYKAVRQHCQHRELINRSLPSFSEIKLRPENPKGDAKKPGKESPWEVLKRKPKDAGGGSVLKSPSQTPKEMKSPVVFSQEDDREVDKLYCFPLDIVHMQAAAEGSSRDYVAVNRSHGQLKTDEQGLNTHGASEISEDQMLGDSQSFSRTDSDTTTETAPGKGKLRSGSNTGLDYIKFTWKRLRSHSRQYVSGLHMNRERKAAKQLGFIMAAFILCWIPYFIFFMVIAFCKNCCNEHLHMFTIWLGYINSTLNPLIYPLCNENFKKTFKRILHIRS

| inhibition [1] | Ki [2] | SMILES | further results |
| --- | --- | --- | --- |
| 57% |  | CC(C)N1CCC(Nc2ccc3cc(C(=O)NC4CCCCC4)ccc3c2)CC1 |  |
|  | 0.087 µM | CC(C)N1CCC(Oc2ccc3cc(C(=O)NC4CCCCC4)ccc3c2)CC1 | EC50 [3]: 0.021 µM; inhibition [4]: < 25%; inhibition [5]: < 25%; inhibition [6]: < 25% |
| 61% |  | CC(C)N1CCC(Nc2ccc3cc(C(=O)N4CCOCC4)ccc3c2)CC1 |  |
| 45% |  | CC(C)N1CCC(Nc2ccc3cc(C(=O)N4CCCC4)ccc3c2)CC1 |  |

More lines, now with the values behind:

| SMILES | inhibition [1] | Ki [2] | further results |
| --- | --- | --- | --- |
| O=C(c1cccc2cc(OCCCN3CCCCC3)ccc12)N1CCCC1 | 58% |  |  |
| c1ccc2c(Nc3ccc(OCCCN4CCCCC4)cc3)ccnc2c1 |  | 0.0005 µM |  |
| CC(C)N1CCC(Oc2ccc3c(C(=O)N4CCCC4)cccc3c2)CC1 | 53% |  |  |
| O=C(c1ccc2cc(OCCCN3CCCCC3)ccc2c1)N1CCCC1 |  | 0.004 µM |  |
| CC(C)N1CCC(Oc2ccc3c(C(=O)NC4CCCCC4)cccc3c2)CC1 | 52% |  |  |
| CC(C)N1CCC(Oc2ccc3cc(C(=O)N4CCCC4)ccc3c2)CC1 |  | 0.057 µM |  |
| C[C@H]1CC[C@H](C)N1CCCOc1ccc(-c2ccc(C(=O)N3CCOCC3)cc2)cc1 (single isomer, unassigned) [A-349,821] |  | 0.012 µM |  |
